Experimental findings from patent US4639433A, “Glycopeptide derivatives” (Eli Lilly and Company, priority 1985, dated 1987) are described below.

Test systems include Escherichia coli N10; Escherichia coli EC14; Escherichia coli TEM.
What all share (details): agar dilution
Test [1] relates to Staphylococcus aureus NRRL B313.
Test [2] relates to Staphylococcus aureus V41.
The subject of test [3] is Staphylococcus aureus X400.
The test system of test [4] is Staphylococcus aureus S13E.
Test [5] relates to Staphylococcus epidermidis EPI1.
For test [6], the system named is Staphylococcus epidermidis 222.
For test [7], the system named is Streptococcus pyogenes C203.
For test [8], the system named is Streptococcus pneumoniae Park 1.
Test [9] deals with Streptococcus faecium ATCC 9790.
Test [10] has as its system Streptococcus sp. group D 2041.
Test [11] relates to Haemophilus influenzae C.L.
Test [12] concerns Haemophilus influenzae 76.
In test [13] the test system is Klebsiella pneumoniae X26.
Test [14] deals with Klebsiella pneumoniae X68.
For test [15], the system named is Klebsiella pneumoniae KAE.

In brackets after ≈: the same amount, converted by molar mass.

In the case of `C=CCCCCCCCCC(=O)N(C)C(CC(C)C)C(=O)NC1C(=O)NC(CC(N)=O)C(=O)NC2C(=O)NC3C(=O)NC(C(=O)NC(C(=O)O)c4cc(O)cc(O)c4-c4cc3ccc4O)C(O)c3ccc(c(Cl)c3)Oc3cc2cc(c3OC2OC(CO)C(O)C(O)C2OC2CC(C)(N)C(O)C(C)O2)Oc2ccc(cc2Cl)C1O` (stereo not drawn) [Compound 10, N^leu --(1-oxo-10-n-decenyl)vancomycin], the MIC in test [1] came to 4 µg/mL (≈ 2.48 µM); in [2], 4 µg/mL (≈ 2.48 µM); in test [3], 4 µg/mL (≈ 2.48 µM); in [4], 4 µg/mL (≈ 2.48 µM); in test [5], 32 µg/mL (≈ 19.8 µM); in test [6], 8 µg/mL (≈ 4.95 µM). For the same compound, the MIC in test [7] was 1 µg/mL (≈ 0.619 µM); in test [8], 2 µg/mL (≈ 1.24 µM); in [9], 2 µg/mL (≈ 1.24 µM); in [10], 4 µg/mL (≈ 2.48 µM); in test [11], “-- (not active at 128 mcg/ml)”; in [12], “-- (not active at 128 mcg/ml)”. Further, the MIC entry (against Escherichia coli N10; against Escherichia coli EC14; in the test with Escherichia coli TEM; in [13]; in [14]; in [15]) was “-- (not active at 128 mcg/ml)” each time.
Consider `CCC(CC)C(=O)NC1(C)CC(OC2C(Oc3c4cc5cc3Oc3ccc(cc3Cl)C(O)C3NC(=O)C(NC(=O)C5NC(=O)C(CC(N)=O)NC(=O)C(NC(=O)C(CC(C)C)NC)C(O)c5ccc(c(Cl)c5)O4)c4ccc(O)c(c4)-c4c(O)cc(O)cc4C(C(=O)O)NC3=O)OC(CO)C(O)C2O)OC(C)C1O` (stereo not drawn) [Compound 22, N^van --(2-ethyl-1-oxo-n-butyl)vancomycin], for which the MIC turned out to be 2 µg/mL (≈ 1.29 µM) in test [1]; 2 µg/mL (≈ 1.29 µM) in [2]; 2 µg/mL (≈ 1.29 µM) in test [3]; 2 µg/mL (≈ 1.29 µM) in test [4]; 8 µg/mL (≈ 5.17 µM) in test [5]; 2 µg/mL (≈ 1.29 µM) in test [6]. The MIC is 2 µg/mL (≈ 1.29 µM) in [7]; 2 µg/mL (≈ 1.29 µM) in [8]; 2 µg/mL (≈ 1.29 µM) in test [9]; 8 µg/mL (≈ 5.17 µM) in test [10]; 128 µg/mL (≈ 82.7 µM) in [11]; 128 µg/mL (≈ 82.7 µM) in test [12]. The MIC result (in the test with Escherichia coli N10; against Escherichia coli EC14; against Escherichia coli TEM; in test [13]; in [14]; in [15]) was “-- (not active at 128 mcg/ml)” throughout.
For `CNC(CC(C)C)C(=O)NC1C(=O)NC(CC(N)=O)C(=O)NC2C(=O)NC3C(=O)NC(C(=O)NC(C(=O)O)c4cc(O)cc(O)c4-c4cc3ccc4O)C(O)c3ccc(c(Cl)c3)Oc3cc2cc(c3OC2OC(CO)C(O)C(O)C2OC2CC(C)(NC(=O)C(N)C(C)C)C(O)C(C)O2)Oc2ccc(cc2Cl)C1O` (stereo not drawn) [Compound 33, N^van --(2-amino-1-oxo-isopentyl)vancomycin], the MIC in test [1] is 8 µg/mL (≈ 5.17 µM); in test [2], 8 µg/mL (≈ 5.17 µM); in test [3], 32 µg/mL (≈ 20.7 µM); in test [4], 8 µg/mL (≈ 5.17 µM); in [5], 32 µg/mL (≈ 20.7 µM); in test [6], 32 µg/mL (≈ 20.7 µM). Also, the MIC in test [7] is 8 µg/mL (≈ 5.17 µM); in test [8] it was 8 µg/mL (≈ 5.17 µM); in test [9], 8 µg/mL (≈ 5.17 µM); in [10], 32 µg/mL (≈ 20.7 µM); in test [11], “-- (not active at 128 mcg/ml)”; in test [12], “-- (not active at 128 mcg/ml)”. In addition, the MIC result (against Escherichia coli N10; against Escherichia coli EC14; in the test on Escherichia coli TEM; in test [13]; in test [14]; in [15]) was “-- (not active at 128 mcg/ml)” throughout.
